Measurements as given in patent publication US11807693B2 (priority 2014, dated 2023).
Starred links: 1 amine or outer side, 2 acyl side, 3 side chain; linkers in the order of their positions; H or OH if unused. Non-standard residues stand in square brackets, D forms with d. Residues, ends and D or L forms follow the SMILES beside them. *: point of attachment. Oic = O=C(O)[C@@H]1C[C@@H]2CCCC[C@@H]2N1; Phe(4-Cl) = N[C@@H](Cc1ccc(Cl)cc1)C(=O)O; Phe(4-F) = N[C@@H](Cc1ccc(F)cc1)C(=O)O; γGlu = O=C(O)[C@H](CCC(=O)[*:2])N[*:1]; NMehArg = CN[C@@H](CCCCNC(=N)N)C(=O)O; d(β3hF) = N[C@@H](CC(=O)O)Cc1ccccc1; NMeR = CN[C@@H](CCCNC(=N)N)C(=O)O; Palmitoyl = CCCCCCCCCCCCCCCC(=O)*; Tridecanoyl = CCCCCCCCCCCCC(=O)*; αMeF = C[C@](N)(Cc1ccccc1)C(=O)O; 3Pal = N[C@@H](Cc1cccnc1)C(=O)O; Cha = N[C@@H](CC1CCCCC1)C(=O)O; αMeL = CC(C)C[C@](C)(N)C(=O)O; αMeP = C[C@@]1(C(=O)O)CCCN1; β3hP = O=C(O)C[C@@H]1CCCN1; Pip = O=C(O)[C@@H]1CCCCN1; β3hS = N[C@@H](CO)CC(=O)O; Nle = CCCC[C@H](N)C(=O)O; Orn = NCCC[C@H](N)C(=O)O; AEEA = NCCOCCOCC(=O)O; Aib = CC(C)(N)C(=O)O; NPrGly = CCCNCC(=O)O

biological target: T1, human APJ receptor (Homo sapiens, UniProt P35414); experiment: [35S] GTPγS assay, human APJ receptor; format: biochemical; details: Table 16
T1 construct: expressed in transfected cells
T1 sequence (P35414 1-380): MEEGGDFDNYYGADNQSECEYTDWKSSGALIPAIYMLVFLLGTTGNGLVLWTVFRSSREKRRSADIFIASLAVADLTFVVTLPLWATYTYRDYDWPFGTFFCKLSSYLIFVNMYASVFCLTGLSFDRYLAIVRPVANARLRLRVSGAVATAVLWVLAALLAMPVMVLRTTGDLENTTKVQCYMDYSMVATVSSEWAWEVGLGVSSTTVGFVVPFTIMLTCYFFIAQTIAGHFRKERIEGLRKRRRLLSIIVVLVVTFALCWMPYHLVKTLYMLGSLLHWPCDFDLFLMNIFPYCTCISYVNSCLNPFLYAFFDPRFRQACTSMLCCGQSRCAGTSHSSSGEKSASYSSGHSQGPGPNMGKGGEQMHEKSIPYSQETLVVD
Method: The membranes were incubated with modified peptides in the assay buffer. […] Bound [^35S] GTPγS was separated from free radiolabel by filtration. The filter bound radioactivity was determined by liquid scintillation counting.

Row | EC50 | SMILES
1 | 0.113 nM | CCCCCCCCCCCCC(=O)N[C@@H](CCC(=O)NCCOCCOCC(=O)NCCOCCOCC(=O)N[C@H](CCC(N)=O)C(=O)N[C@@H](CCCNC(=N)N)C(=O)N1CCC[C@H]1C(=O)N(C)[C@@H](CCCNC(=N)N)C(=O)N[C@@](C)(CC(C)C)C(=O)N[C@@H](CO)CC(=O)N[C@@H](Cc1c[nH]cn1)C(=O)N[C@@H](CCCCN)C(=O)NCC(=O)N1[C@H](C(=O)N[C@@H](CCCC)C(=O)N2CCC[C@@]2(C)C(=O)N[C@@H](Cc2ccc(Cl)cc2)C(=O)O)C[C@@H]2CCCC[C@@H]21)C(=O)O [compound 518] ({Tridecanoyl-γGlu-AEEA-AEEA}-[dQ]RP[NMeR][αMeL][β3hS]HKG[Oic][Nle][αMeP][Phe(4-Cl)]-OH)
2 | 0.484 nM | CCCCCCCCCCCCC(=O)N[C@@H](CCC(=O)NCCOCCOCC(=O)NCCOCCOCC(=O)N[C@@H](CCC(N)=O)C(=O)N[C@@H](CCCNC(=N)N)C(=O)N1CCC[C@H]1C(=O)N(C)[C@@H](CCCNC(=N)N)C(=O)N[C@@H](CC1CCCCC1)C(=O)N[C@@H](CO)C(=O)N[C@@H](C)C(=O)N[C@@H](CCCCN)C(=O)NCC(=O)N1[C@H](C(=O)N[C@@H](CCCC)C(=O)N2CCC[C@H]2C(=O)N[C@@H](Cc2ccc(Cl)cc2)C(=O)O)C[C@@H]2CCCC[C@@H]21)C(=O)O [compound 419] ({Tridecanoyl-γGlu-AEEA-AEEA}-QRP[NMeR][Cha]SAKG[Oic][Nle]P[Phe(4-Cl)]-OH)
3 | 1.9 nM | CCCCCCCCCCCCC(=O)N[C@@H](CCC(=O)NCCOCCOCC(=O)NCCOCCOCC(=O)N[C@@H](CCC(N)=O)C(=O)N[C@@H](CCCNC(=N)N)C(=O)N1CCC[C@H]1CC(=O)N(C)[C@@H](CCCNC(=N)N)C(=O)N[C@@H](CC1CCCCC1)C(=O)N[C@@H](CO)C(=O)N[C@@H](Cc1c[nH]cn1)C(=O)N[C@@H](CCCCN)C(=O)NCC(=O)N1[C@H](C(=O)N[C@@H](CCCC)C(=O)N2CCC[C@H]2C(=O)N[C@@H](Cc2ccc(Cl)cc2)C(=O)O)C[C@@H]2CCCC[C@@H]21)C(=O)O [compound 441] ({Tridecanoyl-γGlu-AEEA-AEEA}-QR[β3hP][NMeR][Cha]SHKG[Oic][Nle]P[Phe(4-Cl)]-OH)
4 | 3.48 nM | CCCCCCCCCCCCC(=O)N[C@@H](CCC(=O)NCCOCCOCC(=O)NCCOCCOCC(=O)N[C@@H](CCC(N)=O)C(=O)N[C@@H](CCCNC(=N)N)C(=O)N1CCCC[C@H]1C(=O)N(C)[C@@H](CCCNC(=N)N)C(=O)N[C@@H](CC1CCCCC1)C(=O)N[C@@H](CO)C(=O)N[C@@H](Cc1c[nH]cn1)C(=O)N[C@@H](CCCCN)C(=O)NCC(=O)N1[C@H](C(=O)N[C@@H](CCCC)C(=O)N2CCC[C@H]2C(=O)N[C@@H](Cc2ccc(Cl)cc2)C(=O)O)C[C@@H]2CCCC[C@@H]21)C(=O)O [compound 440] ({Tridecanoyl-γGlu-AEEA-AEEA}-QR[Pip][NMeR][Cha]SHKG[Oic][Nle]P[Phe(4-Cl)]-OH)

same assay, conditions: human APJ receptor

Row | EC50 | SMILES
5 | 11.8 nM | CCCCCCCCCCCCCCCC(=O)N[C@@H](CCC(=O)NCCOCCOCC(=O)NCCOCCOCC(=O)N[C@H](CCC(N)=O)C(=O)N[C@@H](CCCNC(=N)N)C(=O)N1CCC[C@H]1C(=O)N(C)[C@@H](CCCNC(=N)N)C(=O)N[C@@H](CC1CCCCC1)C(=O)N[C@@H](CO)C(=O)N[C@@H](Cc1c[nH]cn1)C(=O)N[C@@H](Cc1ccc(F)cc1)C(=O)NCC(=O)N1[C@H](C(=O)N[C@@H](CCCC)C(=O)N2CCC[C@H]2CC(=O)N[C@@H](CC(=O)O)Cc2ccccc2)C[C@@H]2CCCC[C@@H]21)C(=O)O [compound 622] ({Palmitoyl-γGlu-AEEA-AEEA}-[dQ]RP[NMeR][Cha]SH[Phe(4-F)]G[Oic][Nle][β3hP][d(β3hF)]-OH)
6 | 1.59 nM | CCCCCCCCCCCCCCCC(=O)N[C@@H](CCC(=O)NCCOCCOCC(=O)NCCOCCOCC(=O)N[C@H](CCC(N)=O)C(=O)N[C@@H](CCCNC(=N)N)C(=O)N1CCC[C@H]1C(=O)N(C)[C@@H](CCCNC(=N)N)C(=O)N[C@@](C)(CC(C)C)C(=O)N[C@@H](CO)C(=O)N[C@@H](Cc1c[nH]cn1)C(=O)N[C@@H](Cc1cccnc1)C(=O)NCC(=O)N1[C@H](C(=O)N[C@@H](CCCC)C(=O)N2CCC[C@H]2CC(=O)N[C@@H](Cc2ccc(Cl)cc2)C(=O)O)C[C@@H]2CCCC[C@@H]21)C(=O)O [compound 636] ({Palmitoyl-γGlu-AEEA-AEEA}-[dQ]RP[NMeR][αMeL]SH[3Pal]G[Oic][Nle][β3hP][Phe(4-Cl)]-OH)
7 | 1.25 nM | CCCCCCCCCCCCCCCC(=O)N[C@@H](CCC(=O)NCCOCCOCC(=O)NCCOCCOCC(=O)N[C@H](CCC(N)=O)C(=O)N[C@@H](CCCNC(=N)N)C(=O)N1CCC[C@H]1C(=O)N(C)[C@@H](CCCNC(=N)N)C(=O)N[C@@H](CC1CCCCC1)C(=O)N[C@@H](CO)C(=O)N[C@@H](Cc1c[nH]cn1)C(=O)N[C@@H](CCCCN)C(=O)NCC(=O)N1[C@H](C(=O)N[C@@H](CCCC)C(=O)N2CCCC[C@H]2C(=O)N[C@@](C)(Cc2ccccc2)C(=O)O)C[C@@H]2CCCC[C@@H]21)C(=O)O [compound 609] ({Palmitoyl-γGlu-AEEA-AEEA}-[dQ]RP[NMeR][Cha]SHKG[Oic][Nle][Pip][αMeF]-OH)
8 | 0.165 nM | CCCCCCCCCCCCCCCC(=O)N[C@@H](CCC(=O)NCCOCCOCC(=O)NCCOCCOCC(=O)N[C@H](CCC(N)=O)C(=O)N[C@@H](CCCNC(=N)N)C(=O)N1CCC[C@H]1C(=O)N(C)[C@@H](CCCNC(=N)N)C(=O)N[C@@](C)(CC(C)C)C(=O)N[C@@H](CO)C(=O)N[C@@H](Cc1c[nH]cn1)C(=O)N[C@@H](CCCN)C(=O)NCC(=O)N1[C@H](C(=O)N[C@@H](CCCC)C(=O)N2CCC[C@H]2CC(=O)N[C@@H](Cc2ccc(Cl)cc2)C(=O)O)C[C@@H]2CCCC[C@@H]21)C(=O)O [compound 634] ({Palmitoyl-γGlu-AEEA-AEEA}-[dQ]RP[NMeR][αMeL]SH[Orn]G[Oic][Nle][β3hP][Phe(4-Cl)]-OH)
9 | 1.4 nM | CCCCCCCCCCCCCCCC(=O)N[C@@H](CCC(=O)NCCOCCOCC(=O)NCCOCCOCC(=O)N[C@H](CCC(N)=O)C(=O)N[C@@H](CCCNC(=N)N)C(=O)N1CCC[C@H]1C(=O)N(C)[C@@H](CCCNC(=N)N)C(=O)N[C@@H](CC1CCCCC1)C(=O)N[C@@H](CO)C(=O)N(CCC)CC(=O)N[C@@H](CCCCN)C(=O)NCC(=O)N1CCCC[C@H]1C(=O)N[C@@H](CCCC)C(=O)NC(C)(C)C(=O)N[C@@H](Cc1ccc(Cl)cc1)C(=O)O)C(=O)O [compound 644] ({Palmitoyl-γGlu-AEEA-AEEA}-[dQ]RP[NMeR][Cha]S[NPrGly]KG[Pip][Nle][Aib][Phe(4-Cl)]-OH)
10 | 1.81 nM | CCCC[C@H](NC(=O)[C@@H]1CCCN1C(=O)CNC(=O)[C@H](CCCCN)NC(=O)[C@H](Cc1c[nH]cn1)NC(=O)[C@H](CO)NC(=O)[C@H](CC(C)C)NC(=O)[C@H](CCCCNC(=N)N)N(C)C(=O)[C@H](CCCNC(=N)N)NC(=O)[C@H](CCC(N)=O)NC(C)=O)C(=O)N1CCC[C@H]1C(=O)N[C@@H](Cc1ccc(Cl)cc1)C(=O)O [compound 73] (Ac-QR[NMehArg]LSHKGP[Nle]P[Phe(4-Cl)]-OH)
11 | 3.38 nM | CC(C)C[C@@H](C(=O)N[C@@H](CO)C(=O)N[C@@H](Cc1c[nH]cn1)C(=O)N[C@@H](CCCCN)C(=O)NCC(=O)N1[C@H](C(=O)N[C@@H](Cc2ccc(I)cc2)C(=O)N2CCC[C@H]2C(=O)N[C@H](Cc2ccc(-c3ccccc3)cc2)C(=O)O)C[C@@H]2CCCC[C@@H]21)N(C)C(=O)[C@@H](CCCNC(=N)N)NC(=O)[C@@H]1CCCN1C(=O)[C@H](CCCCNC(=N)N)NC(=O)[C@H](CCC(N)=O)NC(=O)[C@@H](CCCNC(=N)N)NC(=O)[C@H](CCCCNC(=N)N)NC(=O)COCCOCCNC(=O)COCCOCCNC(=O)CC[C@H](NC(=O)CCCCCCCCC(=O)O)C(=O)O [compound 291]
